According to patent US5849777A, “Cell differentiation induction with mevalonate and mevalonolactone derivatives” (University of New Mexico, priority 1995, dated 1998):

Test system: Canine glioma
Assay: in vivo tumor inhibition: canine model
Set-up: species or system dog
Experimental: Canine glioma was implanted surgically into the brains of four outbred dogs (2×10^6 cells). This procedure normally causes death by tumor growth in 14-28 days.
[…] F) by I.P. injection in phosphate buffered saline.
Tumor progress was assessed at weekly intervals by NMR, employing GdDPTA as imaging agent. This method illuminates vascularization at the surface of the tumor, and provides images which correlate well with neuropathological observations.

Row | SMILES | tumor status, later studies (10 μg/kg I.P. (data not shown)) | small tumor appeared on Day (pre-treated, 10 μg/kg I.P. M, W, F after implantation (FIG. 8)) [days] | tumor visible at Day (treatment begun on Day 11 (FIG. 9)) [days]
1 | CC(C)c1nc(-c2ccccc2)n(-c2ccc(F)cc2)c1/C=C/[C@H](O)C[C@H](O)CC(=O)O [TF-002] | free of tumor | 12 | –
2 | CC(C)c1c(/C=C/C(O)CC(O)CC(=O)O)n(-c2ccc(F)cc2)c2ccccc12 (stereo not drawn) [TF-004] | – | – | 10
